Test results reported in the NIST ThermoML archive (doi:10.1021/je300134c).

Assay: xn = mol fraction of the nth substance listed
Conditions: 101 kPa, Liquid; for speed of sound: Sing-around technique in a fixed-path interferometer; for mass density: Vibrating tube method

CCCC[n+]1ccn(CC)c1.O=S(=O)([O-])C(F)(F)F + O
Conditions | mass density, 278.15 K [kg/m3] | mass density, 288.15 K [kg/m3] | mass density, 298.15 K [kg/m3] | speed of sound, 278.15 K [m/s] | speed of sound, 288.15 K [m/s] | speed of sound, 298.15 K [m/s] | speed of sound, 308.15 K [m/s]
x1 = 0.04992 | 1120.13 | 1114.86 | 1109.08 | 1524 | 1527.1 | 1526.5 | 1522.5
x1 = 0.1001 | 1171.15 | 1164.38 | 1157.27 | 1521.3 | 1513.5 | 1503 | 1490.2
x1 = 0.1498 | 1199.88 | 1192.37 | 1184.63 | 1514.7 | 1500.2 | 1484.1 | 1466.4
x1 = 0.1998 | 1218.01 | 1210.13 | 1202.11 | 1505.6 | 1487.1 | 1467.7 | 1447.6
x1 = 0.3013 | 1239.57 | 1231.45 | 1223.27 | 1484.6 | 1462.7 | 1440.8 | 1418.7
x1 = 0.4012 | 1251.73 | 1243.63 | 1235.48 | 1467.7 | 1444.7 | 1422 | 1399.3
x1 = 0.496 | 1259.25 | 1251.19 | 1243.13 | 1455.4 | 1432 | 1409 | 1386.3
x1 = 0.6017 | 1265.19 | 1257.22 | 1249.23 | 1444.9 | 1421 | 1397.9 | 1375.1
x1 = 0.7007 | 1269.28 | 1261.36 | 1253.44 | 1436.2 | 1412.4 | 1389.3 | 1366.7
x1 = 0.8551 | 1274.04 | 1266.2 | 1258.37 | 1428 | 1403.7 | 1380.5 | 1357.8
x1 = 0.9006 | 1275.29 | 1267.39 | 1259.57 | 1424.8 | 1400.7 | 1377.5 | 1355
x1 = 1 | 1278.02 | 1269.97 | 1262.21 | 1420.6 | 1396.3 | 1373.1 | 1350.6
